Assay results taken from patent US10414797B2, “Gelatinase inhibitors and use thereof” (Iproteos S.L, priority 2015, dated 2019).
Where a SMILES comes first, the peptide text is derived from it. [ ]: non-standard residue; d: D form. The star is where a group is joined. ξ: configuration not given here. Pro(trans-4-F) = O=C(O)[C@@H]1C[C@@H](F)CN1; Benzoyl(3,5-F2) = O=C(c1cc(F)cc(F)c1)*; NMeIle(3ξ) = CCC(C)[C@H](NC)C(=O)O; NMeF = CN[C@@H](Cc1ccccc1)C(=O)O; NMeA = CN[C@@H](C)C(=O)O; Dab = NCC[C@H](N)C(=O)O; Hexanoyl = CCCCCC(=O)*; Bz = O=C(c1ccccc1)*; NHOH = ON*

Legend:
Format in all cases: biochemical
[1] = target: MMP-2 (Homo sapiens (Human), UniProt P08253); test: MMP-2 inhibition assay (fluorimetric, DQ gelatin substrate); settings: recombinant MMP-2 (CHO cells) 85 ng/mL, DQ gelatin 50 μg/mL, 2 hours at room temperature, pH 7.6
Chain of MMP-2 (P08253 110-660): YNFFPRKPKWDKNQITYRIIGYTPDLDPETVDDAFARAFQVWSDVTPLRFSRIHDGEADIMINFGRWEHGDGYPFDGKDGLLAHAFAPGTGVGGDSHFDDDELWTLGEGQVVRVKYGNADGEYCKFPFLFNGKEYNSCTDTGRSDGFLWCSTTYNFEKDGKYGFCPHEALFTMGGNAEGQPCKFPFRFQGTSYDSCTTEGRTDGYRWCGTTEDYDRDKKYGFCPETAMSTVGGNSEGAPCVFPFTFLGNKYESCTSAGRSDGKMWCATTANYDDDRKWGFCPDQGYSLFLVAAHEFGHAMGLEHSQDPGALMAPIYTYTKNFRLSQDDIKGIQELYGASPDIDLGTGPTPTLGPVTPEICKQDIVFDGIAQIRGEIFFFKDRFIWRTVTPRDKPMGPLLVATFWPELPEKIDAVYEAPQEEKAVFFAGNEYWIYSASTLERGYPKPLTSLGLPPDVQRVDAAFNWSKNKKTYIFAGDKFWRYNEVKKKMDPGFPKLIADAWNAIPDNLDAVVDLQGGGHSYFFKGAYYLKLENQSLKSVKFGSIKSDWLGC
Experimental: (§1) All the experiments were done in 1× reaction buffer, which was obtained from a 10× reaction buffer solution. The content of the 10× reaction buffer was: 50 mL of 0.5 M Tris-HCl, 1.5 M NaCl, 50 mM CaCl2 and 2 mM sodium azide at pH 7.6. To obtain the 1× reaction buffer 4 mL of the 10× reaction buffer were diluted in 36 mL of H2O.
Recombinant MMP-2 expressed in Chinese hamster ovary (CHO) cells was obtained from Merck-Millipore (catalog number PF023-5UG). DQ gelatin from pig skin fluorescein conjugated (MMP-2 substrate) was obtained from Life Technologies (catalog number E12055).
Preparation of the MMP-2 for the activity assay: MMP-2 was provided as a stock solution (0.1 mg/mL). The enzyme was diluted in 1× reaction buffer to a final concentration of 5 μg/mL.
(§2) Preparation of the DQ gelatin (substrate) solution for the activity assay: the solid form of the substrate was dissolved in water in order to obtain a stock solution of 1 mg/mL.
(§3) Procedure: The enzymatic assays were performed in 96-well microtiter plate, which allowed simultaneous monitoring of multiple reactions. For each reaction, 86.3 μL of 1× reaction buffer (pH 7.6), 1.7 μL of MMP-2 (final concentration 85 ng/mL) and 2 μL of the corresponding new compound were added to each well. A stock solution of new compound was prepared in DMSO (100 mM), and dilutions were prepared from this stock solution with DMSO. Finally, to the mixture contained in each well 10 μL of the substrate were added (final concentration 50 μg/mL). The reaction was incubated for 2 hours at room temperature in an orbital shaker (100 rpm).
(§4) The inhibitory activity of the new compound was measured fluorimetrically. The excitation and emission wavelengths were 483 and 525 nm, respectively.
(§5) Inhibitory activity at several concentration points (ranging from 100 pM to 200 μM MMP) were measured for each compound. The inhibitory activity on MMP-2 and MMP-9 was calculated according to eq 1. For each new compound, the fluorescence in the presence (a) and in the absence (b) of the corresponding MMP was measured. The maximum fluorescence (0% inhibitory activity) was obtained from a sample of the corresponding MMP in the absence of inhibitory compounds. To estimate the inhibitory potency of the novel compounds, activities were plotted against the log concentration of the compound, adjusting to a sigmoid curve using GraphPad Prism software, and the IC50 value, defined as the concentration of compound required to inhibit 50% of the corresponding MMP activity, was determined from resulting curve.
(§6) a corresponds to fluorescence intensity in the presence of substrate+test compound+MMP
(§7) b corresponds to the fluorescence intensity in the presence of substrate+tested compound
(§8) c corresponds to the fluorescence intensity in the presence of substrate+MMP
(§9) d corresponds to the fluorescence intensity of the presence of substrate

[2] = target: MMP-1 (Homo sapiens (Human), UniProt P03956); test: MMP-1 inhibition assay (fluorogenic peptide substrate); settings: recombinant MMP-1 5.52 nM, Mca-PLGL-Dpa-AR-NH2 10 μM, 4 hours at room temperature; tested at 1, 10, 100 and 200 μM
Chain of MMP-1 (P03956 100-269): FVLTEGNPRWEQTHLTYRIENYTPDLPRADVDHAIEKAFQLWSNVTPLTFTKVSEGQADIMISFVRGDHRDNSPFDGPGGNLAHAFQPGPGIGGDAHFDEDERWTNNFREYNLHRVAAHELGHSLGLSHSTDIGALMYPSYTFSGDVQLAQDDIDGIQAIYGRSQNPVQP
Experimental: as §1
Recombinant MMP-1 expressed in E. Coli was obtained from Enzo Life Sciences (catalog number BML-SE180). Mca-PLGL-Dpa-AR-NH2 (fluorogenic peptide substrate) was obtained from R&D Systems (catalog number ES001).
Preparation of the MMP-1 for the activity assay: MMP-1 was provided as a stock solution (0.55 mg/mL). The enzyme was diluted in 1× reaction buffer to a final concentration of 276 nM.
MMP-1 peptide substrate was provided as a stock solution in DMSO (6 mM). For the assay, the substrate was diluted 1× reaction buffer to a concentration of 100 μM.
Procedure: The enzymatic assays were performed in 96-well microtiter plate, which allowed simultaneous monitoring of multiple reactions. For each reaction, 86 μL of 1× reaction buffer (pH 7.6), 2 μL of MMP-1 (final concentration 5.52 nM) and 2 μL of the corresponding new compound were added to each well. A stock solution of the new compound was prepared in DMSO (100 mM), and dilutions were prepared from this stock solution with DMSO. Finally, to the mixture contained in each well 10 μL of the substrate were added (final concentration 10 μM). The reaction was incubated for 4 hours at room temperature in an orbital shaker (100 rpm).
The inhibitory activity of the new compound was measured fluorimetrically. The excitation and emission wavelengths were 320 and 405 nm, respectively.
Inhibitory activity at several concentration points (1, 10, 100 and 200 μM) were measured for each compound. The inhibitory activity on MMP-1, MMP-3 and MMP-7 was calculated according to eq 1 and The IC50 value was calculated as explained above for MMP-2 and MMP-9.

[3] = target: MMP-9 (Homo sapiens, UniProt P14780); test: MMP-9 inhibition assay (fluorimetric, DQ gelatin substrate); settings: recombinant MMP-9 (Merck-Millipore for examples 1 to 9 and comparative examples; Enzo for examples 10 to 16), DQ gelatin 50 μg/mL, 4 hours at room temperature, pH 7.6
Chain of MMP-9 (P14780 107-707 limits assumed): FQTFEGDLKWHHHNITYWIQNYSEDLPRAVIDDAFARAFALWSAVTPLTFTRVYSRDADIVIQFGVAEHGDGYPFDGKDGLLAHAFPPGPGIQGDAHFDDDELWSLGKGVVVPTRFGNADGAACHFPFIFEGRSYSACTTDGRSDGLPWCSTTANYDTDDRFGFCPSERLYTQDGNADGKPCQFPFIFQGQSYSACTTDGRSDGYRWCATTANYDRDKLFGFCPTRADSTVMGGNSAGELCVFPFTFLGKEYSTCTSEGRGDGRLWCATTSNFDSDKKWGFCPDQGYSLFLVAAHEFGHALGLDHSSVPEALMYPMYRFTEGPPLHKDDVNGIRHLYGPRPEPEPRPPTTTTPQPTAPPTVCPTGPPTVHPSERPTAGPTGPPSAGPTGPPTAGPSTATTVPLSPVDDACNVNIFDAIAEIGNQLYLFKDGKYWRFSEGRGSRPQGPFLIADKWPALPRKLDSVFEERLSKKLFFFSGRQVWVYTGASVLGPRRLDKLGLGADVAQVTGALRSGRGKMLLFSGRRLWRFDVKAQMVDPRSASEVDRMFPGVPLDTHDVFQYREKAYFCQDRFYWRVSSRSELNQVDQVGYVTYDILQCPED
Experimental: as §1
Recombinant MMP-9 expressed was obtained from Merck-Millipore (catalog number PF140-5UG, used in examples 1 to 9 and comparative examples) and Enzo (catalog number-SE360-0010, used in examples 10 to 16). DQ gelatin from pig skin fluorescein conjugated (MMP-9 substrate) was obtained from Life Technologies (catalog number E12055).
Preparation of the MMP-9 for the activity assay: MMP-9 was provided as a stock solution (0.1 mg/mL). The enzyme was diluted in 1× reaction buffer to a final concentration of 5 μg/mL.
as §2
as §3, with “reaction, 84.6” for “reaction, 86.3”, “7.6), […]” for “7.6), 1.7”, “of MMP-9” for “of MMP-2”, “for 4” for “for 2”
as §4, §5, §6, §7, §8, §9

SMILES | IC50 [1] | IC50 [2] | IC50 [3] | MMP-1 IC50 [2]
CCC(C)[C@@H](C(=O)N[C@@H](CCNC(=O)c1cc(F)cc(F)c1)C(=O)NO)N(C)C(=O)[C@@H]1CCCN1C(=O)[C@H](Cc1ccccc1)N(C)C(C)=O (stereo partly drawn) [Example 11, (2 S)-1-[(2S)-2-[acetyl(methyl)amino]-3-phenyl-propanoyl]-N-[(1S)-1-[[(1S)-3-[(3,5-difluorobenzoyl)amino]-1-(hydroxycarbamoyl)propyl]carbamoyl]-2-methyl-butyl]-N-methyl-pyrrolidine-2-carboxamide] (Ac-[NMeF]P[NMeIle(3ξ)][Dab](Benzoyl(3,5-F2))-{NHOH}) | 0.174 µM | 9.13 µM | 0.071 µM | –
CCCCCC(=O)N1C[C@H](F)C[C@H]1C(=O)N(C)[C@H](C(=O)N[C@@H](CCNC(=O)c1ccccc1)C(=O)NO)C(C)CC (stereo partly drawn) [Example 16, (2S,4R)—N-[(1S)-1-[[(1S)-3-benzamido-1-(hydroxycarbamoyl)propyl]carbamoyl]-2-methyl-butyl]-4-fluoro-N-methyl-1-hexanoyl-pyrrolidine-2-carboxamide] (Hexanoyl-[Pro(trans-4-F)]-[NMeIle(3ξ)]-[Dab](Bz)-{NHOH}) | < 0.001 µM | – | 0.01 µM | <1 µM
CCCCCC(=O)N1CCC[C@H]1C(=O)N(C)[C@H](C(=O)N[C@@H](CCNC(=O)c1ccccc1)C(=O)NO)C(C)CC (stereo partly drawn) [Example 15, (2S)—N-[(1S)-1-[[(1S)-3-benzamido-1-(hydroxycarbamoyl)propyl]carbamoyl]-2-methyl-butyl]-N-methyl-1-hexanoyl-pyrrolidine-2-carboxamide] (Hexanoyl-Pro-[NMeIle(3ξ)]-[Dab](Bz)-{NHOH}) | 0.285 µM | 10.8 µM | 0.702 µM | –
CCCC(=O)N1CCC[C@H]1C(=O)N(C)[C@H](C(=O)N[C@@H](CCNC(=O)c1cc(F)cc(F)c1)C(=O)NO)C(C)CC (stereo partly drawn) [Example 4, (2S)-1-butanoyl-N-[(1S)-1-[[(1S)-3-[(3,5-difluorobenzoyl)amino]-1-(hydroxycarbamoyl)propyl]carbamoyl]-2-methyl-butyl]-N-methyl-pyrrolidine-2-carboxamide] | 0.062 µM | 4.73 µM | 0.235 µM | –
CCCC(CCC)C(=O)N1CCC[C@H]1C(=O)N(C)[C@H](C(=O)N[C@@H](CCNC(=O)c1cc(F)cc(F)c1)C(=O)NO)C(C)CC (stereo partly drawn) [Example 8, (2S)—N-[(1S)-1-[[(1S)-3-[(3,5-difluorobenzoyl)amino]-1-(hydroxycarbamoyl)propyl]carbamoyl]-2-methyl-butyl]-N-methyl-1-(2-propylpentanoyl)pyrrolidine-2-carboxamide] | 0.974 µM | 3.65 µM | 0.263 µM | –
CCCCCC(=O)N1CC(F)(F)C[C@H]1C(=O)N(C)[C@H](C(=O)N[C@@H](CCNC(=O)c1cc(F)cc(F)c1)C(=O)NO)C(C)CC (stereo partly drawn) [Example 7, (2S)—N-[(1S)-1-[[(1S)-3-[(3,5-difluorobenzoyl)amino]-1-(hydroxycarbamoyl)propyl]carbamoyl]-2-methyl-butyl]-4,4-difluoro-1-hexanoyl-N-methyl-pyrrolidine-2-carboxamide] | 0.159 µM | 24.7 µM | 0.713 µM | –
CCC(C)[C@@H](C(=O)N[C@@H](CCNC(=O)c1cc(F)cc(F)c1)C(=O)NO)N(C)C(=O)[C@@H]1CCCN1C(=O)[C@H](C)N(C)C(C)=O (stereo partly drawn) [Example 12, (2 S)-1-[(2S)-2-[acetyl(methyl)amino]propanoyl]-N-[(1S)-1-[[(1S)-3-[(3,5-difluorobenzoyl)amino]-1-(hydroxycarbamoyl)propyl]carbamoyl]-2-methyl-butyl]-N-methyl-pyrrolidine-2-carboxamide] (Ac-[NMeA]P[NMeIle(3ξ)][Dab](Benzoyl(3,5-F2))-{NHOH}) | 0.021 µM | 14.9 µM | 0.136 µM | –
